System: hepatic cholesterogenesis
Assay: In vivo cholesterogenesis in the liver ([14C]acetate incorporation into digitonin-precipitable hepatic sterols)
Details: male Sprague-Dawley rats on 5%-cholestylamine diet for 4 days; dose of 30 mg/kg as suspension in 0.5%-methylcellulose; [14C]acetate i.v. 1 hour after administration, livers removed one hour later; compared to the control group
Protocol: Six-week-old, male Sprague-Dawley rats were given 5%-cholestylamine as a dietary admixture for 4 days. They were administered compound at a dose of 30 mg/kg as a suspension of 0.5%-methylcellulose solution and were intravenously given 2 uCi of [^14C]acetate 1 hour after the administration. One hour later, rats were sacrificed and livers were removed. Hepatic sterols were extracted with petroleum ether after saponification, and the radioactivity of digitonin-precipitable fraction was measured. Example 1-(4) inhibited the hepatic cholesterogenesis by 38% compared to the control group given only […] solution.

`CCOC(=O)CC1OC(c2ccccc2Cl)c2cc(Cl)ccc2N(CC(C)(C)C)C1=O` (stereo not shown) [Example 1-(4)] was tested, and the “inhibited the hepatic cholesterogenesis” value was 38%.
